Biological target: T1, human NaV 1.8 (Homo sapiens, UniProt Q9Y5Y9)
T1 construct: expressed in transfected cells; host or cells: HEK (recombinant cell line)
Assay: Automated whole-cell patch clamp (Qube384) voltage-clamp recordings of sodium currents in HEK-NaV1.8 cell line
Format: cell-based
Details: read-out: Potency category (human NaV 1.8 IC50)
Experimental: Electrophysiology: Voltage-Clamp Recordings
The following NaV1.8 recombinant cell line was used for recordings: HEK-NaV1.8 (NM_006514.1) with b3 (NM_018400.3).
Sodium currents were measured using the patch clamp technique in the whole-cell configuration using the Qube384 (Sophion A/S, Copenhagen, Denmark) automated voltage clamp platform. “Multi hole” plates were used for the cell line expressing NaV1.8 while “single hole” plates were used for the recombinant cell lines expressing the other subtypes. Appropriate filters (for minimum seal resistance and minimum current size) and series resistance compensation (for high quality sodium channel recordings) were applied. Data was collected at ambient room temperature or 19° C.
The recording extracellular solution contained (in mM): NaCl 145 mM, KCl 4 mM, CaCl2 2 mM, MgCl2 1 mM, HEPES 10 mM, Glucose 10 mM, pH 7.4 (NaOH). The intracellular recording solution contained (in mM): CsF 120 mM, CsCl 20 mM, NaCl 10 mM, EGTA 10 mM, HEPES 10 mM, pH 7.2 (CsOH). Currents were recorded at 25 kHz sampling frequency and filtered at 5 kHz. Series resistance compensation was applied at 65%.
Vehicle (VEH) is the control condition where cells are exposed to 0.3% DMSO without compound. All runs include VEH controls being exposed to the same voltage protocols to assess non-compound related phenomena such as run down and then used to isolate compound dependent effects on currents.
To check for state-dependent inhibition, the following voltage-sequence was applied every 20 seconds:
From a resting membrane potential of −120 mV, the first test pulse (P1; 20 ms to −10 mV) was applied to check for channels in the Resting State followed by a brief recovery (100 ms to −120 mV), then holding the membrane voltage to V1/2 (4 seconds at voltage to obtain half the channel at Rest and half Inactivated) with a subsequent second test pulse (P2; 20 ms to −10 mV) to check for channels in the Inactivated State, followed by another brief recovery (20 ms to −120 mV) and a final third test pulse (P3; 20 ms to −10 mV) to check for recovered channels.
To check for frequency-dependent inhibition, a 10 Hz protocol and a 20 Hz protocol were applied; namely,
From a resting membrane potential of −120 mV, 40-pulses (10 ms to −10 mV) was applied at 10 Hz (at 100 ms between pulses) and then at 20 Hz (at 50 ms between pulses).
Each parameter was recorded (P1, P2, P3, P40 from 10 Hz and P40 from 20 Hz) during a control period (lasting 5 minutes) when establishing the baseline and during compound period (lasting ~12 minutes) when test compound (or vehicle) was applied. For each parameter, the value at the end of the compound period was normalized to the vehicle baseline; as follows
To adjust for any variance in the Na^+ current signal during the compound period (owing to cumulative inactivation independent of compound or shifts in biophysics over time), a dedicated segment of the recording wells in each 384 plate were dedicated to having only vehicle exposure. These vehicle-only recordings were used to correct for any apparent “run-up” or “run-down” in the experiment.
The adjusted inhibition was calculated as follows: […]
Percent inhibition was determined and IC50 values were calculated using a 4 parameter logistic model within XLFit Software (IDBS, Boston MA): F
[formula] where A and B are the maximal and minimum inhibition respectively, C is the IC50 concentration and D is the (Hill) slope.

T1 sequence (Q9Y5Y9 whole entry): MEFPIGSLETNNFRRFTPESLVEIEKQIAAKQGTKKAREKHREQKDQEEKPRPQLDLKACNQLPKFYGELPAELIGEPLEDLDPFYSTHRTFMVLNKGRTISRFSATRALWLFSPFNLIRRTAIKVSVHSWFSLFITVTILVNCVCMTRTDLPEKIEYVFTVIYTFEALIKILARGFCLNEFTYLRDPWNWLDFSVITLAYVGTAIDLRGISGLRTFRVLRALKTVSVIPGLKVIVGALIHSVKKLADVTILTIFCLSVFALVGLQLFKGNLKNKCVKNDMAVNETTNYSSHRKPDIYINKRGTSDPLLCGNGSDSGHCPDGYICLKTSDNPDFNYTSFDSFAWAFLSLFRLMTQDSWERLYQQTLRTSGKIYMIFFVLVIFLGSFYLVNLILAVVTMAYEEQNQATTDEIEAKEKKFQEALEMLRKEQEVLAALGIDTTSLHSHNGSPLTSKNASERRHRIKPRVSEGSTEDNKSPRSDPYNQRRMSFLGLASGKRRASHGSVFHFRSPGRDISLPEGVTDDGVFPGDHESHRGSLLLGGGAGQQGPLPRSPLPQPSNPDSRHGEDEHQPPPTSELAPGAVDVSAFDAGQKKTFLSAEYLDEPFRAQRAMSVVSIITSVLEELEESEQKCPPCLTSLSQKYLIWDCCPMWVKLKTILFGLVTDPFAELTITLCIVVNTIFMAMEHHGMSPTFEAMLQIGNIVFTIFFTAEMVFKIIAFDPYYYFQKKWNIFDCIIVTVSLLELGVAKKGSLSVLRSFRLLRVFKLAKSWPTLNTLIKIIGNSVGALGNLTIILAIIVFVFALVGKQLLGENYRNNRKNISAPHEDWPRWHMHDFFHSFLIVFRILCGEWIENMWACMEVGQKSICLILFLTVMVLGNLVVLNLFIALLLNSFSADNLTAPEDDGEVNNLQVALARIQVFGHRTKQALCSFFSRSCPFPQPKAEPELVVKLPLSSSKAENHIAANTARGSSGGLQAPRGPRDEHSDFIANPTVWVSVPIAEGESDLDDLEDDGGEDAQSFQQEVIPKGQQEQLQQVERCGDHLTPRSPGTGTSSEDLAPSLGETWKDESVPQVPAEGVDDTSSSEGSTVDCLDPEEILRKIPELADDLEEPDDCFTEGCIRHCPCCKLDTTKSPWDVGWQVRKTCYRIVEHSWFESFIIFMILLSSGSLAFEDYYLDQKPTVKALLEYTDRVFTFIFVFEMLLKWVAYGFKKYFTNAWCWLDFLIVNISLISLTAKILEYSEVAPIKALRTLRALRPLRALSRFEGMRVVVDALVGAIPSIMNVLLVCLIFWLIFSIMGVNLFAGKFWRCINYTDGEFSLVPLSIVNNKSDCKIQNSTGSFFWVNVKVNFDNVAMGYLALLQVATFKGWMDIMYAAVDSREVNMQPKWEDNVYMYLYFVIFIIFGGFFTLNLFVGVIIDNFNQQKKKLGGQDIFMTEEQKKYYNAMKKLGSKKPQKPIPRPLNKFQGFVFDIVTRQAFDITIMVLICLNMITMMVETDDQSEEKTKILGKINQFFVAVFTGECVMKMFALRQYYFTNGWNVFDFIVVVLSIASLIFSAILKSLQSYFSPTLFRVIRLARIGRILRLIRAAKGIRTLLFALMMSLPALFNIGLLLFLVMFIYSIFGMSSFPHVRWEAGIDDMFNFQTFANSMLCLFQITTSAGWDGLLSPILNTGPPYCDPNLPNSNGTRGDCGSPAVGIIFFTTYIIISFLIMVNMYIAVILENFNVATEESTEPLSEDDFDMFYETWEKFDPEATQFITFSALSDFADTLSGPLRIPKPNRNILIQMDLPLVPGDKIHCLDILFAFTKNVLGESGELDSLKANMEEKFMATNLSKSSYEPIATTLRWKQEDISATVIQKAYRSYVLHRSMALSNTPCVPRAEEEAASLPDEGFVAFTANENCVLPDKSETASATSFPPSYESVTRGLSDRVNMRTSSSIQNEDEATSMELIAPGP

IC50	Compound
≤ 100 nM	CC1(Cn2nc(C3CC3)c(C(F)(F)F)c2C(=O)Nc2ccc(F)c(S(C)(=N)=O)c2)CC(F)(F)C1 (single isomer, unassigned) [Example 132a, 3-Cyclopropyl-1-((3,3-difluoro-1-methylcyclobutyl)methyl)-N-(4-fluoro-3-(S-methylsulfonimidoyl)phenyl)-4-(trifluoromethyl)-1H-pyrazole-5-carboxamide]
≤ 100 nM	CS(=N)(=O)c1cc(NC(=O)c2c(C(F)(F)F)c(C3CC3)nn2CC23CC(CC2(F)F)C3)ccn1 (single isomer, unassigned) [Example 103b, 3-cyclopropyl-1-((2,2-difluorobicyclo[2.1.1]hexan-1-yl)methyl)-N-(2-(S-methylsulfonimidoyl)pyridin-4-yl)-4-(trifluoromethyl)-1H-pyrazole-5-carboxamide]
≤ 100 nM	CS(=N)(=O)c1cc(NC(=O)c2c(C(F)(F)F)c(C3CC3)nn2CC2CC3(C2)CC(F)(F)C3)ccn1 (single isomer, unassigned) [Example 27b, 3-cyclopropyl-1-((6,6-difluorospiro[3.3]heptan-2-yl)methyl)-N-(2-(S-methylsulfonimidoyl)pyridin-4-yl)-4-(trifluoromethyl)-1H-pyrazole-5-carboxamide]
≤ 100 nM	CC1(Cn2nc(C3(F)CC3)c(C(F)(F)F)c2C(=O)Nc2ccc(F)c(S(C)(=N)=O)c2)CC(F)(F)C1 (single isomer, unassigned) [Example 126a, 1-((3,3-Difluoro-1-methylcyclobutyl)methyl)-N-(4-fluoro-3-(S-methylsulfonimidoyl)phenyl)-3-(1-fluorocyclopropyl)-4-(trifluoromethyl)-1H-pyrazole-5-carboxamide]
≤ 100 nM	CC1(Cn2nc(C3CC(F)(F)C3)c(C(F)(F)F)c2C(=O)Nc2ccnc(S(C)(=N)=O)c2)CC(F)(F)C1 (single isomer, unassigned) [Example 57a, 1-((3,3-Difluoro-1-methylcyclobutyl)methyl)-3-(3,3-difluorocyclobutyl)-N-(2-(S-methylsulfonimidoyl)pyridin-4-yl)-4-(trifluoromethyl)-1H-pyrazole-5-carboxamide]
≤ 100 nM	CC1(Cn2nc(C3(F)CC3)c(C(F)(F)F)c2C(=O)Nc2ccnc(S(C)(=N)=O)c2)CC(F)(F)C1 (single isomer, unassigned) [Example 70a, 1-((3,3-Difluoro-1-methylcyclobutyl)methyl)-3-(1-fluorocyclopropyl)-N-(2-(S-methylsulfonimidoyl)pyridin-4-yl)-4-(trifluoromethyl)-1H-pyrazole-5-carboxamide]
≤ 100 nM	C[S@@](=N)(=O)c1cccc(NC(=O)c2c(C(F)(F)F)c(C3(F)CC3)nn2CC2C[C@@H]2C(F)(F)F)c1 (single isomer, unassigned) [Example 134a, 3-(1-Fluorocyclopropyl)-N-(3-(S-methylsulfonimidoyl)phenyl)-4-(trifluoromethyl)-1-(((trans)-2-(trifluoromethyl)cyclopropyl)methyl)-1H-pyrazole-5-carboxamide]
≤ 100 nM	CS(=N)(=O)c1cc(NC(=O)c2c(C(F)(F)F)c(C3CC3)nn2C[C@@H]2CCC(F)(F)C2)ccn1 (single isomer, unassigned) [Example 17c]
100 to 1000 nM	COC1(c2nn(CC3(C)CC(F)(F)C3)c(C(=O)Nc3ccnc(S(C)(=N)=O)c3)c2C(F)(F)F)CC1 (single isomer, unassigned) [Example 71a, 1-((3,3-difluoro-1-methylcyclobutyl)methyl)-3-(1-methoxycyclopropyl)-N-(2-(S-methylsulfonimidoyl)pyridin-4-yl)-4-(trifluoromethyl)-1H-pyrazole-5-carboxamide]
≤ 100 nM	C[S@@](=N)(=O)c1cc(NC(=O)c2c(C(F)(F)F)c(C3CC3)nn2C[C@@H]2CC23CC3)ccn1 (single isomer, unassigned) [Example 78a, 3-cyclopropyl-N-(2-(S-methylsulfonimidoyl)pyridin-4-yl)-1-(spiro[2.2]pentan-1-ylmethyl)-4-(trifluoromethyl)-1H-pyrazole-5-carboxamide]
≤ 100 nM	CS(=N)(=O)c1cc(NC(=O)c2c(C(F)(F)F)c(C3CC3)nn2CC2C3(CC3)C23CC3)ccn1 (single isomer, unassigned) [Example 80a, 3-cyclopropyl-1-(dispiro[2.0.24.13]heptan-7-ylmethyl)-N-(2-(S-methylsulfonimidoyl)pyridin-4-yl)-4-(trifluoromethyl)-1H-pyrazole-5-carboxamide]
100 to 1000 nM	CC(=O)N1CC2(CCC2Cn2nc(C3CC3)c(C(F)(F)F)c2C(=O)Nc2ccnc(S(C)(=N)=O)c2)C1 (single isomer, unassigned) [Example 140a, 1-((2-Acetyl-2-azaspiro[3.3]heptan-5-yl)methyl)-3-cyclopropyl-N-(2-(S-methylsulfonimidoyl)pyridin-4-yl)-4-(trifluoromethyl)-1H-pyrazole-5-carboxamide]
≤ 100 nM	C[C@@H]1C[C@H]1c1nn(CC2(C)CC(F)(F)C2)c(C(=O)Nc2ccnc([S@](C)(=N)=O)c2)c1C(F)(F)F (single isomer, unassigned) [Example 65c, 1-((3,3-Difluoro-1-methylcyclobutyl)methyl)-3-((trans)-2-methylcyclopropyl)-N-(2-(S-methylsulfonimidoyl)pyridin-4-yl)-4-(trifluoromethyl)-1H-pyrazole-5-carboxamide]
≤ 100 nM	CN=S(C)(=O)c1cc(NC(=O)c2c(C)c(C(C)(F)F)nn2CC2(C)CC(F)(F)C2)ccn1 (single isomer, unassigned) [Example 34a, 1-((3,3-Difluoro-1-methylcyclobutyl)methyl)-3-(1,1-difluoroethyl)-N-(2-(N,S-dimethylsulfonimidoyl)pyridin-4-yl)-4-methyl-1H-pyrazole-5-carboxamide]
≤ 100 nM	C[C@@H]1C[C@H]1c1nn(CC2(C)CC(F)(F)C2)c(C(=O)Nc2ccnc([S@@](C)(=N)=O)c2)c1C(F)(F)F (single isomer, unassigned) [Example 65d, 1-((3,3-Difluoro-1-methylcyclobutyl)methyl)-3-((trans)-2-methylcyclopropyl)-N-(2-(S-methylsulfonimidoyl)pyridin-4-yl)-4-(trifluoromethyl)-1H-pyrazole-5-carboxamide]
≤ 100 nM	CC1(Cn2nc(C3(F)CC3)c(C(F)(F)F)c2C(=O)Nc2cccc(S(=N)(=O)C(F)F)c2)CC(F)(F)C1 (single isomer, unassigned) [Example 130a, 1-((3,3-Difluoro-1-methylcyclobutyl)methyl)-N-(3-(S-(difluoromethyl)sulfonimidoyl)phenyl)-3-(1-fluorocyclopropyl)-4-(trifluoromethyl)-1H-pyrazole-5-carboxamide]
≤ 100 nM	CC1(Cn2nc(C3CC3)c(C(F)(F)F)c2C(=O)Nc2ccnc(S(C)(=O)=NC#N)c2)CC(F)(F)C1 (single isomer, unassigned) [Example 142a, N-(2-(N-Cyano-S-methylsulfonimidoyl)pyridin-4-yl)-3-cyclopropyl-1-((3,3-difluoro-1-methylcyclobutyl)methyl)-4-(trifluoromethyl)-1H-pyrazole-5-carboxamide]
≤ 100 nM	COC1(c2nn(CC3(C)CC(F)(F)C3)c(C(=O)Nc3ccnc(S(C)(=N)=O)c3)c2C(F)(F)F)CC1 (single isomer, unassigned) [Example 71b, 1-((3,3-difluoro-1-methylcyclobutyl)methyl)-3-(1-methoxycyclopropyl)-N-(2-(S-methylsulfonimidoyl)pyridin-4-yl)-4-(trifluoromethyl)-1H-pyrazole-5-carboxamide]
100 to 1000 nM	CS(=N)(=O)c1cc(NC(=O)c2c(C(F)(F)F)c(C3CC3)nn2CC23CC(F)(C2)C3)ccn1 (single isomer, unassigned) [Example 25b, 3-cyclopropyl-1-((3-fluorobicyclo[1.1.1]pentan-1-yl)methyl)-N-(2-(S-methylsulfonimidoyl)pyridin-4-yl)-4-(trifluoromethyl)-1H-pyrazole-5-carboxamide]

— patent US12685726B2, “Sulfoximines as inhibitors of NaV1.8” (Gruenenthal GmbH, priority 2022, dated 2026)
